Data on 16 molecules can be found in patent US20250059205A1, “Heterocyclic Compounds and Methods of Use” (AMGEN INC., priority 2021, published 2025).

Assay [1] concerns the target His-tagged KRAS G12D protein (Homo sapiens, UniProt P01116, G12D). The assay is described as follows: KRAS G12D TR-FRET Assay. It counts as binding. Background: TR-FRET usually uses a lanthanide donor and a delayed reading to cut background.
In assay [2] the test system is Phosphorylation of ERK1/2 in A-427 cells. The assay is described as follows: Phospho-ERK1/2 MSD Assay (A-427 cells). In kind it is cell-based. The conditions noted are these: 2 h treatment, read-out: p-ERK (A427 cells) IC50. The essentials: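 ERK1/2 phosphorylation measured by Meso Scale whole-cell lysate assay after A-427 cells were exposed to a titration of compound for 2 h at 37 °C.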

Assay [3] concerns Phosphorylation of ERK1/2 in AsPC-1 cells. The assay can be described thus: Phospho-ERK1/2 MSD Assay (AsPC-1 cells). The conditions noted are these: 2 hours treatment, read-out: p-ERK (AsPC-1 cells) IC50. In kind it is cell-based. The essentials: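 Read-out: MSD electrochemiluminescent detection of phosphorylated ERK1/2 in whole-cell lysates, fitted to a 4-parameter logistic curve for IC50. Prior to lysis, AsPC-1 cells (25,000 per well) received a 2 h compound dose-response at 37 °C.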

Assay [4] deals with GDP-bound KRAS protein (aa 1-169), containing both G12D and C118A amino acid substitutions (Homo sapiens, UniProt P01116, C118A/G12D). The assay is described as follows: KRAS G12D Coupled Nucleotide Exchange Assay. It counts as biochemical. The conditions noted are these: 2 h compound pre-incubation. How it is done: Following compound pre-incubation, purified SOS protein (aa 564-1049) and GTP (Roche 10106399001) were added to the assay wells and incubated for an additional 30 min. […] The assay plates were then read on a PerkinElmer EnVision Multilabel Reader, using AlphaScreen® technology, and data were analyzed using a 4-parameter logistic model to calculate IC50 values.

The structures appear in SMILES notation. Like-named read-outs stand apart in the source and are kept apart here.

A word on the IC50: it is the concentration at which inhibition is half-maximal.

His-tagged KRAS G12D protein, sequence (P01116 1-188 isoform P01116-2 G12D): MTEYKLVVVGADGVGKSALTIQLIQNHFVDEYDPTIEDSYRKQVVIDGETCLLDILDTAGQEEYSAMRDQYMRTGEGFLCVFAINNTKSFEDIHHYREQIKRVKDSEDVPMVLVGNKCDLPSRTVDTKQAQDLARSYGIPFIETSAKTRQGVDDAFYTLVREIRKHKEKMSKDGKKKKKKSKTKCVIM
GDP-bound KRAS protein (aa 1-169), containing both G12D and C118A amino acid substitutions, sequence (P01116 1-169 isoform P01116-2 G12D/C118A): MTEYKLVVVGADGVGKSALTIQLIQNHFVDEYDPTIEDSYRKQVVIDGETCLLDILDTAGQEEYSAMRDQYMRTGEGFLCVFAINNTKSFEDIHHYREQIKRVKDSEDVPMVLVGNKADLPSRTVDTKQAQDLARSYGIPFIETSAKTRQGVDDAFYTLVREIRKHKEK

Turning to `Oc1cc(-c2c(F)cc3c(N4C[C@H]5COC[C@@H](C4)N5)nc(OC[C@@]45CCCN4C[C@H](F)C5)nc3c2F)c2ccccc2c1` [Example 15, 4-(4-((1R,5S)-3-oxa-7,9-diazabicyclo[3.3. 1]nonan-7-yl)-6,8-difluoro-2-(((2R,7aS)-2-fluorotetrahydro-1H-pyrrolizin-7a(5H)-yl)methoxy)quinazolin-7-yl)naphthalen-2-ol], the IC50 amounted to 20 nM in assay [1]; 1550 nM in assay [2] (Homo sapiens, A-427, 2 h); 3220 nM in assay [3] (Homo sapiens, ASPC1, 2 h). Further, the “Avg 2 h Coupled Exchange IC50” value in assay [4] came to 14 nM.
Take `C#Cc1cccc2cc(O)cc(-c3ccc4c(N5C[C@H]6CC[C@@H](C5)N6)nc(OC[C@@]56CCCN5C[C@H](F)C6)nc4c3F)c12` [Example 185, 4-(4-((1R,5S)-3,8-diazabicyclo[3.2.1]octan-3-yl)-8-fluoro-2-(((2R,7aS)-2-fluorotetrahydro-1H-pyrrolizin-7a(5H)-yl)methoxy)quinazolin-7-yl)-5-ethynylnaphthalen-2-ol]: the IC50 in assay [1] was 1 nM; in assay [2] (Homo sapiens, A-427, 2 h), 1 nM; in assay [3] (Homo sapiens, ASPC1, 2 h), 16 nM. In addition, in assay [4], the “Avg 2 h Coupled Exchange IC50” value was 1 nM.
As for `CCc1c(F)ccc2cc(O)cc(-c3ccc4c(N5C[C@@H]6CC[C@H]5CN6)nc(OC[C@@]56CCCN5C[C@H](F)C6)nc4c3F)c12` [Example 139, 4-(4-((1S,4S)-2,5-diazabicyclo[2.2.2]octan-2-yl)-8-fluoro-2-(((2R,7aS)-2-fluorotetrahydro-1H-pyrrolizin-7a(5H)-yl)methoxy)quinazolin-7-yl)-5-ethyl-6-fluoronaphthalen-2-ol], the half-inhibitory concentration (IC50) in assay [1] is 5 nM; in assay [2] (Homo sapiens, A-427, 2 h), 8 nM; in assay [3] (Homo sapiens, ASPC1, 2 h), 44 nM. The “Avg 2 h Coupled Exchange IC50” value in assay [4] was 4 nM.
With `CCc1c(F)ccc2cc(O)cc(-c3ccc4c(N5C[C@@H]6CC[C@H]5CN6)nc(OC[C@@]56CCCN5C[C@H](F)C6)nc4c3C)c12` [Example 92, 4-(4-((1S,4S)-2,5-diazabicyclo[2.2. 2]octan-2-yl)-2-(((2R,7aS)-2-fluorotetrahydro-1H-pyrrolizin-7a(5H)-yl)methoxy)-8-methylquinazolin-7-yl)-5-ethyl-6-fluoronaphthalen-2-ol], the half-inhibitory concentration (IC50) worked out at 24 nM in assay [1]; 880 nM in assay [2] (Homo sapiens, A-427, 2 h); 829 nM in assay [3] (Homo sapiens, ASPC1, 2 h). In addition, the “Avg 2 h Coupled Exchange IC50” value in assay [4] is 33 nM.
As for `CCc1cccc2cc(O)cc(-c3c(Cl)cc4c(N5C[C@H]6CC[C@@H](C5)N6)nc(OC[C@@]56CCCN5C[C@H](F)C6)nc4c3F)c12` [Example 170, 4-(4-((1R,5S)-3,8-diazabicyclo[3.2.1]octan-3-yl)-6-chloro-8-fluoro-2-(((2R,7aS)-2-fluorotetrahydro-1H-pyrrolizin-7a(5H)-yl)methoxy)quinazolin-7-yl)-5-ethylnaphthalen-2-ol], the IC50 is 3 nM in assay [1]; 86 nM in assay [2] (Homo sapiens, A-427, 2 h); 126 nM in assay [3] (Homo sapiens, ASPC1, 2 h). Also, in assay [4], the “Avg 2 h Coupled Exchange IC50” value was 3 nM.
`CCc1c(F)ccc2cc(O)cc(-c3c(F)cc4c(N5C6CCC5C(=O)NC6)nc(OC[C@@]56CCCN5C[C@H](F)C6)nc4c3F)c12` (single isomer, unassigned) [Example 176]: the IC50 was 11 nM in assay [1], 545 nM in assay [2] and 2650 nM in assay [3]. In addition, in assay [4], the “Avg 2 h Coupled Exchange IC50” value stood at 7 nM.
Regarding `CCc1c(F)ccc2cc(O)cc(-c3cc4nc(OC[C@@]56CCCN5C[C@H](F)C6)nc(N5C[C@@H]6CC[C@H]5CN6)c4cc3F)c12` [Example 174, 4-(4-((1S,4S)-2,5-diazabicyclo[2.2.2]octan-2-yl)-6-fluoro-2-(((2R,7aS)-2-fluorotetrahydro-1H-pyrrolizin-7a(5H)-yl)methoxy)quinazolin-7-yl)-5-ethyl-6-fluoronaphthalen-2-ol], the IC50 in assay [1] was found to be 4 nM; in assay [2] (Homo sapiens, A-427, 2 h) it was 57 nM; in assay [3] (Homo sapiens, ASPC1, 2 h), 64 nM. Also, the “Avg 2 h Coupled Exchange IC50” value in assay [4] was 5 nM.
On the same counts, the results for `CCc1c(F)ccc2cc(O)cc(-c3ccc4c(N5C[C@H]6CC[C@@H](C5)N6)nc(OC[C@@]56CCCN5C[C@H](F)C6)nc4c3C)c12` [Example 95, 4-(4-((1R,5S)-3,8-diazabicyclo[3.2. 1]octan-3-yl)-2-(((2R,7aS)-2-fluorotetrahydro-1H-pyrrolizin-7a(5H)-yl)methoxy)-8-methylquinazolin-7-yl)-5-ethyl-6-fluoronaphthalen-2-ol] are 10 nM, 199 nM, 230 nM and 10 nM.
On the same counts, the results for `CCc1c(F)ccc2cc(O)cc(-c3cc4nc(OC[C@@]56CCCN5C[C@H](F)C6)nc(N5C[C@H]6CC[C@@H](C5)N6)c4cc3F)c12` [Example 83, 4-(4-((1R,5S)-3,8-diazabicyclo[3.2. 1]octan-3-yl)-6-fluoro-2-(((2R,7aS)-2-fluorotetrahydro-1H-pyrrolizin-7a(5H)-yl)methoxy)quinazolin-7-yl)-5-ethyl-6-fluoronaphthalen-2-ol] are 3 nM, 28 nM, 77 nM and 2 nM.
`Cc1ccc2cnn(C)c2c1-c1c(Cl)cc2c(N3C[C@H]4CC[C@@H](C3)N4)nc(OC[C@@]34CCCN3C[C@H](F)C4)nc2c1F` [Example 76, 4-((1R,5S)-3,8-diazabicyclo[3.2. 1]octan-3-yl)-6-chloro-7-(1,6-dimethyl-1H-indazol-7-yl)-8-fluoro-2-(((2R,7aS)-2-fluorotetrahydro-1H-pyrrolizin-7a(5H)-yl)methoxy) quinazoline]: the IC50 in assay [1] was 10 nM; in assay [2] (Homo sapiens, A-427, 2 h), 191 nM; in assay [3] (Homo sapiens, ASPC1, 2 h) it was 674 nM. For the same molecule, in assay [4], the “Avg 2 h Coupled Exchange IC50” value was determined as 8 nM.
Take `Cc1cccc(-c2c(F)cc3c(N4C[C@H]5CC[C@@H](C4)N5)nc(OC[C@@]45CCCN4C[C@H](F)C5)nc3c2F)c1C(F)(F)F` [Example 149, 4-((1R,5S)-3,8-diazabicyclo[3.2.1]octan-3-yl)-6,8-difluoro-2-(((2R,7aS)-2-fluorotetrahydro-1H-pyrrolizin-7a(5H)-yl)methoxy)-7-(3-methyl-2-(trifluoromethyl)phenyl)quinazoline]: the 50% inhibitory concentration (IC50) in assay [1] worked out at 5 nM; in assay [2] (Homo sapiens, A-427, 2 h), 939 nM; in assay [3] (Homo sapiens, ASPC1, 2 h), 680 nM. Also, in assay [4], the “Avg 2 h Coupled Exchange IC50” value came to 2 nM.
On to `Fc1c(-c2cc(C(F)F)cc3ccccc23)ccc2c(N3C[C@H]4CC[C@@H](C3)N4)nc(OC[C@@]34CCCN3C[C@H](F)C4)nc12` [Example 225, 4-((1R,5S)-3,8-diazabicyclo[3.2.1]octan-3-yl)-7-(3-(difluoromethyl)naphthalen-1-yl)-8-fluoro-2-(((2R,7aS)-2-fluorotetrahydro-1H-pyrrolizin-7a(5H)-yl)methoxy) quinazoline], for which the IC50 in assay [1] was 57 nM; in assay [2] (Homo sapiens, A-427, 2 h) it was 79 nM; in assay [3] (Homo sapiens, ASPC1, 2 h) it was 256 nM. In addition, the “Avg 2 h Coupled Exchange IC50” value in assay [4] was 44 nM.
Turning to `N#Cc1cccc2cc(O)cc(-c3ccc4c(N5C[C@H]6CC[C@@H](C5)N6)nc(OC[C@@]56CCCN5C[C@H](F)C6)nc4c3F)c12` [Example 205, 8-(4-((1R,5S)-3,8-Diazabicyclo[3.2.1]octan-3-yl)-8-fluoro-2-(((2R,7aS)-2-fluorotetrahydro-1H-pyrrolizin-7a(5H)-yl)methoxy)quinazolin-7-yl)-6-hydroxy-1-naphthonitrile], the IC50 in assay [1] was found to be 6 nM; in assay [2] (Homo sapiens, A-427, 2 h) it was 71 nM; in assay [3] (Homo sapiens, ASPC1, 2 h), 293 nM. In assay [4], the “Avg 2 h Coupled Exchange IC50” value amounted to 7 nM.
For the molecule `Oc1ccc(-c2c(Cl)cc3c(N4C[C@H]5CC[C@@H](C4)N5)nc(OC[C@@]45CCCN4C[C@H](F)C5)nc3c2F)c2ccccc12` [Example 80, 4-(4-((1R,5S)-3,8-diazabicyclo[3.2. 1]octan-3-yl)-6-chloro-8-fluoro-2-(((2R,7aS)-2-fluorotetrahydro-1H-pyrrolizin-7a(5H)-yl)methoxy)quinazolin-7-yl)naphthalen-1-ol], the IC50 in assay [1] turned out to be 10 nM; in assay [2] (Homo sapiens, A-427, 2 h), 649 nM; in assay [3] (Homo sapiens, ASPC1, 2 h), 607 nM. The “Avg 2 h Coupled Exchange IC50” value in assay [4] stood at 4 nM.
Consider `Cc1c(Cl)cc2[nH]ncc2c1-c1ccc2c(N3[C@@H]4CC[C@H]3CNC4)nc(OC[C@@]34CCCN3C[C@H](F)C4)nc2c1` [Example 38, 4-((1R,5S)-3,8-diazabicyclo[3.2. 1]octan-8-yl)-7-(6-chloro-5-methyl-1H-indazol-4-yl)-2-(((2R,7aS)-2-fluorotetrahydro-1H-pyrrolizin-7a(5H)-yl)methoxy) quinazoline], for which the IC50 in assay [1] was 195 nM; in assay [2] (Homo sapiens, A-427, 2 h), > 10000 nM; in assay [3] (Homo sapiens, ASPC1, 2 h), 6310 nM. In assay [4], the “Avg 2 h Coupled Exchange IC50” value was found to be 42 nM.
For `Nc1cc(Cl)c(C(F)(F)F)c(-c2ccc3c(N4C[C@H]5CC[C@@H](C4)N5)nc(OC[C@@]45CCCN4C[C@H](F)C5)nc3c2F)n1` [Example 228, 6-(4-((1R,5S)-3,8-Diazabicyclo[3.2.1]octan-3-yl)-8-fluoro-2-(((2R,7aS)-2-fluorotetrahydro-1H-pyrrolizin-7a(5H)-yl)methoxy)quinazolin-7-yl)-4-chloro-5-(trifluoromethyl)pyridin-2-amine], the IC50 in assay [1] is 2 nM; in assay [2] (Homo sapiens, A-427, 2 h), 77 nM; in assay [3] (Homo sapiens, ASPC1, 2 h) it was 302 nM. In addition, the “Avg 2 h Coupled Exchange IC50” value in assay [4] was 2 nM.
